The test system of assay [1] is Cryptococcus neoformans TIMM 0354. Kind of assay: Antifungal activity: growth inhibition of Cryptococcus neoformans TIMM 0354 (serial two-fold dilution). It is filed as cell-based. The following applies: YNBG liquid medium, 2 days at 30° C.; for MIC: Cryptococcus neoformans, TIMM0354, 48 h, read-out: Antifungal activity MIC (minimum growth inhibitory concentration); for minimum growth sub-inhibitory concentration (minimum concentration causing partial growth inhibition; value in parentheses): printed in parentheses. As for the experimental part: The test microorganism used was Cryptococcus neoformans TIMM 0354. YNBG liquid medium (Difco yeast nitrogen base 0.67%, glucose 1%) was used and the minimum growth inhibitory concentration […] was determined after culturing for 2 days at 30° C. in the presence of the serial two-fold dilution of the compound. The minimum growth sub-inhibitory concentration (μg/ml) was determined as the minimum concentration causing partial growth inhibition of the microorganism and also shown in Table 2 in parentheses.

Assay [2] deals with mixed lymphocytes reaction (MLR), T cells from spleen cells of C57BL/6 mice and BALB/c mice. Kind of assay: Immunosuppressive activity: inhibition of mixed lymphocytes reaction (MLR). It is filed as cell-based, mice (C57BL/6. The following applies: Lymphocyte; mouse MLR, 50% inhibition. The text has this: We measured inhibitory activity of mixed lymphocytes reaction (MLR) and determined the 50% inhibitory activity. Lymphocytes used are T cells from spleen cells of C57BL/6 mice and BALB/c mice.

Values after ≈ are worked out from the molar mass of the structure shown.

These results are taken from patent publication US6239297A, “Sphingosine derivatives and medicinal composition” (Takara Shuzo Co., Ltd., priority 1997, dated 2001).

Broadly, the IC50 is the concentration that gives 50% inhibition.

Turning to `CCCCCCCCCCCCCC=CC(O)C(N)COC(=O)C(O)CO` (centres unmarked) [Compound (5)], in assay [1], the MIC was determined as 50 µg/mL (≈ 129 µM) and the “minimum growth sub-inhibitory concentration (minimum concentration causing partial growth inhibition; value in parentheses)” value came to 25 µg/mL. Besides, it took 5 µg/mL (≈ 12.9 µM) to reach half-maximal inhibition in assay [2] (IC50).
As for `CCCCCCCCCCCCCCCC(O)C(N)COC(=O)[C@@H](NC(=O)C(O)CO)C(C)C` (some centres unmarked) [Compound (1)], in assay [1], the MIC is 50 µg/mL (≈ 102 µM) and the “minimum growth sub-inhibitory concentration (minimum concentration causing partial growth inhibition; value in parentheses)” value stood at 25 µg/mL. Moreover, the midpoint of inhibition in assay [2], the IC50, lay at 3.25 µg/mL (≈ 6.65 µM).
Take `CCCCCCCCCCCCCCCC(O)C(N)C(=O)NC(C)C(=O)NC(C(=O)NC(CO)CO)C(C)C` (centres unmarked) [Compound (8)]: in assay [1], the “minimum growth sub-inhibitory concentration (minimum concentration causing partial growth inhibition; value in parentheses)” value stood at 50 µg/mL. This molecule also showed an IC50 in assay [2] of 0.44 µg/mL (≈ 0.787 µM).
Consider `CCCCCCCCCCCCCC=CC(O)C(N)COC(=O)C(NC(=O)C(O)CO)C(C)C` (centres unmarked) [Compound (2)], for which, in assay [1], the MIC came to 25 µg/mL (≈ 51.4 µM) and the “minimum growth sub-inhibitory concentration (minimum concentration causing partial growth inhibition; value in parentheses)” value amounted to 12.5 µg/mL. In assay [2], this molecule yielded an IC50 of 1.86 µg/mL (≈ 3.82 µM).
On to `CCCCCCCCCCCCCC=CC(O)C(N)COC(=O)C(N)C(C)C` (centres unmarked) [Compound (6)], for which, in assay [1], the MIC turned out to be 50 µg/mL (≈ 125 µM) and the “minimum growth sub-inhibitory concentration (minimum concentration causing partial growth inhibition; value in parentheses)” value worked out at 25 µg/mL. The IC50 in assay [2] worked out at 1.55 µg/mL (≈ 3.89 µM).
